{"source": "patent US20100041089A1", "about": "“IMPROVED METHOD FOR DETECTING CHEMICAL […]” (priority 2006, published 2010)", "system": "yeast genes (expressed mRNA)", "assay": "DNA chip measurement of expressed mRNA of yeast genes after culture with a toxic chemical substance", "type": "cell-based, Saccharomyces cerevisiae S288C", "method": "Yeast (Saccharomyces cerevisiae S288C (a SUC2mal mel gap2 CUP1)) were cultured at 25° C. on YPD medium (yeast extract 1%, polypeptone 2%, glucose 2%). One of toxic chemical substances was added to the cell at logarithmic growth phase, and the cell was further cultured for two hours. Cell was cultured without any chemical substance in the same condition, and was used as a control. Concentrations of the chemical substances were defined to inhibit the growth of the yeast but not lead to death.\nAfter the completion of cultivation, the culture was centrifuged to collect the cells. To the cells, sodium acetate buffer (50 mM sodium acetate, 10 mM EDTA, 1% SDS) was added, and the mixture was shaken at 65° C. for five minutes, followed by returning to room temperature, and obtaining the supernatant, which procedure was repeated two times. To the supernatant, ½ amount of a solution of phenol/chloroform (1:1) was added, and the mixture was centrifuged to give a supernatant, an equal amount of chloroform was added, and the mixture was centrifuged to give a supernatant. To the supernatant, an equal amount of isopropanol containing 0.3 M sodium acetate was added, and the mixture was allowed to stand at room temperature for 30 minutes, after which the mixture was centrifuged to give sediment of the whole RNAs. Seventy % ethanol was added to the sediment, and the mixture was again centrifuged to give sediment, which was then dried and dissolved in water. mRNA was isolated from the whole RNAs as followings. In view of the fact that a poly A chain is attached to the 3′ terminus of mRNA, a polynucleotide having a poly T structure which was immobilized on the surface of latex beads was used to trap the mRNA, and then the mRNA was washed and eluted with spine column (Oligotex-dT30<Super>mRNA Purification Kit, Takara). Reverse transcription of the mRNA was conducted with a reverse transcriptase (Super Script II Reverse Transcriptase; catalogue No. 18064-014, GibcoBRL) using fluorescence-labeled nucleotides to give cDNAs that were introduced with Cy3-dUTP or Cy5-dUTP during the reverse transcription.\nThe labeled cDNAs were dissolved in TE buffer (10 mM Tris-HCl/1 mM EDTA, pH 8.0), and the solution was dropped on the DNA chip containing the whole genes of yeast (DNA Chip Research Inc. Japan) so that the cDNAs were hybridized on the DNA chip at 65° C. for over 12 hours. The fluoresces intensity of the DNA chip was read with a scanner, and the ratio relative to the fluorescence intensity resulting from the absence of chemical substance was estimated as the following, which is shown in Tables 1 to 9.\nIn the Tables, “Intensity” indicated in the rightmost column is a value of the level of expressed mRNA of each gene in control cells as divided by the average level of the expressions of the whole genes. A gene of which mRNA level is lower in control, and is higher in cases of addition of chemical substance, is especially useful in the detection of toxic substances.\nHere, when a ratio of an amount of mRNA expressed in the presence of the chemical substance to an amount of mRNA expressed in the absence of the chemical substance is two or more, then it is considered significant."}
{"compound": "CCCCCCCCCCCCOS(=O)(=O)[O-].[Na+]", "note": "[(18), Sodium lauryl sulfate]", "values": [{"measurement": "The level of expressed mRNA in the presence of chemical substance/The level of expressed mRNA in the absence of chemical substance", "setting": "yeast gene YFL032W, cultured two hours with substance", "value": 0.8}, {"measurement": "The level of expressed mRNA in the presence of chemical substance/The level of expressed mRNA in the absence of chemical substance", "setting": "yeast gene YFR046C, cultured two hours with substance", "value": 1.2}, {"measurement": "The level of expressed mRNA in the presence of chemical substance/The level of expressed mRNA in the absence of chemical substance", "setting": "yeast gene YGL006W (transport facilitation protein gene)", "value": 4.1}, {"measurement": "The level of expressed mRNA in the presence of chemical substance/The level of expressed mRNA in the absence of chemical substance", "setting": "yeast gene YGL037C, cultured two hours with substance", "value": 2.6}, {"measurement": "The level of expressed mRNA in the presence of chemical substance/The level of expressed mRNA in the absence of chemical substance", "setting": "yeast gene YGL047W, cultured two hours with substance", "value": 1.2}, {"measurement": "The level of expressed mRNA in the presence of chemical substance/The level of expressed mRNA in the absence of chemical substance", "setting": "yeast gene YGL053W, cultured two hours with substance", "value": 3.7}, {"measurement": "The level of expressed mRNA in the presence of chemical substance/The level of expressed mRNA in the absence of chemical substance", "setting": "yeast gene YGL121C, cultured two hours with substance", "value": 3.5}, {"measurement": "The level of expressed mRNA in the presence of chemical substance/The level of expressed mRNA in the absence of chemical substance", "setting": "yeast gene YGL136C, cultured two hours with substance", "value": 1.1}, {"measurement": "The level of expressed mRNA in the presence of chemical substance/The level of expressed mRNA in the absence of chemical substance", "setting": "yeast gene YGL199C, cultured two hours with substance", "value": 1.0}, {"measurement": "The level of expressed mRNA in the presence of chemical substance/The level of expressed mRNA in the absence of chemical substance", "setting": "yeast gene YGR008C, cultured for two hours with substance", "value": 4.2}, {"measurement": "The level of expressed mRNA in the presence of chemical substance/The level of expressed mRNA in the absence of chemical substance", "setting": "yeast gene YGR026W, cultured two hours with the chemical substance", "value": 1.2}, {"measurement": "The level of expressed mRNA in the presence of chemical substance/The level of expressed mRNA in the absence of chemical substance", "setting": "yeast gene YGR035C, cultured two hours with substance", "value": 4.3}, {"measurement": "The level of expressed mRNA in the presence of chemical substance/The level of expressed mRNA in the absence of chemical substance", "setting": "yeast gene YGR101W, cultured two hours with substance", "value": 1.1}, {"measurement": "The level of expressed mRNA in the presence of chemical substance/The level of expressed mRNA in the absence of chemical substance", "setting": "yeast gene YGR110W, cultured two hours with substance", "value": 2.1}, {"measurement": "The level of expressed mRNA in the presence of chemical substance/The level of expressed mRNA in the absence of chemical substance", "setting": "yeast gene YGR130C, cultured two hours with substance", "value": 1.6}, {"measurement": "The level of expressed mRNA in the presence of chemical substance/The level of expressed mRNA in the absence of chemical substance", "setting": "yeast gene YGR154C, cultured two hours with substance", "value": 1.2}, {"measurement": "The level of expressed mRNA in the presence of chemical substance/The level of expressed mRNA in the absence of chemical substance", "setting": "yeast gene YGR213C", "value": 8.5}, {"measurement": "The level of expressed mRNA in the presence of chemical substance/The level of expressed mRNA in the absence of chemical substance", "setting": "yeast gene YGR221C, cultured two hours with substance", "value": 1.3}, {"measurement": "The level of expressed mRNA in the presence of chemical substance/The level of expressed mRNA in the absence of chemical substance", "setting": "yeast gene YGR244C, cultured for two hours with substance", "value": 3.1}, {"measurement": "The level of expressed mRNA in the presence of chemical substance/The level of expressed mRNA in the absence of chemical substance", "setting": "yeast gene YHR029C, cultured two hours with substance", "value": 2.1}, {"measurement": "The level of expressed mRNA in the presence of chemical substance/The level of expressed mRNA in the absence of chemical substance", "setting": "yeast gene YHR138C, cultured two hours with substance", "value": 7.1}, {"measurement": "The level of expressed mRNA in the presence of chemical substance/The level of expressed mRNA in the absence of chemical substance", "setting": "yeast gene YHR199C, cultured two hours with substance", "value": 0.9}, {"measurement": "The level of expressed mRNA in the presence of chemical substance/The level of expressed mRNA in the absence of chemical substance", "setting": "yeast gene YIL023C, cultured two hours with substance", "value": 1.0}, {"measurement": "The level of expressed mRNA in the presence of chemical substance/The level of expressed mRNA in the absence of chemical substance", "setting": "yeast gene YIL024C, cultured two hours with substance", "value": 1.0}, {"measurement": "The level of expressed mRNA in the presence of chemical substance/The level of expressed mRNA in the absence of chemical substance", "setting": "yeast gene YIL041W, cultured two hours with substance", "value": 1.1}, {"measurement": "The level of expressed mRNA in the presence of chemical substance/The level of expressed mRNA in the absence of chemical substance", "setting": "yeast gene YIL087C, cultured two hours with substance", "value": 1.6}, {"measurement": "The level of expressed mRNA in the presence of chemical substance/The level of expressed mRNA in the absence of chemical substance", "setting": "yeast gene YIL117C, cultured two hours with substance", "value": 2.6}, {"measurement": "The level of expressed mRNA in the presence of chemical substance/The level of expressed mRNA in the absence of chemical substance", "setting": "yeast gene YJL057C, cultured two hours with substance", "value": 1.5}, {"measurement": "The level of expressed mRNA in the presence of chemical substance/The level of expressed mRNA in the absence of chemical substance", "setting": "yeast gene YJL066C, cultured two hours with substance", "value": 1.5}, {"measurement": "The level of expressed mRNA in the presence of chemical substance/The level of expressed mRNA in the absence of chemical substance", "setting": "yeast gene YJL082W, cultured two hours with substance", "value": 0.3}, {"measurement": "The level of expressed mRNA in the presence of chemical substance/The level of expressed mRNA in the absence of chemical substance", "setting": "yeast gene YJL108C, cultured two hours with substance", "value": 0.9}, {"measurement": "The level of expressed mRNA in the presence of chemical substance/The level of expressed mRNA in the absence of chemical substance", "setting": "yeast gene YJL149W, cultured two hours with substance", "value": 1.2}, {"measurement": "The level of expressed mRNA in the presence of chemical substance/The level of expressed mRNA in the absence of chemical substance", "setting": "yeast gene YJL151C, cultured two hours with substance", "value": 2.4}, {"measurement": "The level of expressed mRNA in the presence of chemical substance/The level of expressed mRNA in the absence of chemical substance", "setting": "yeast gene YJL152W, cultured two hours with substance", "value": 1.7}, {"measurement": "The level of expressed mRNA in the presence of chemical substance/The level of expressed mRNA in the absence of chemical substance", "setting": "yeast gene YJL161W, cultured two hours with substance", "value": 2.1}, {"measurement": "The level of expressed mRNA in the presence of chemical substance/The level of expressed mRNA in the absence of chemical substance", "setting": "yeast gene YJL166W, mitochondria-located protein gene, cultured two hours with substance", "value": 4.0}, {"measurement": "The level of expressed mRNA in the presence of chemical substance/The level of expressed mRNA in the absence of chemical substance", "setting": "yeast gene YJL171C, cultured two hours with substance", "value": 2.9}, {"measurement": "The level of expressed mRNA in the presence of chemical substance/The level of expressed mRNA in the absence of chemical substance", "setting": "yeast gene YJL186W, cultured two hours with substance", "value": 0.8}, {"measurement": "The level of expressed mRNA in the presence of chemical substance/The level of expressed mRNA in the absence of chemical substance", "setting": "yeast gene YJR008W, cultured two hours with substance", "value": 2.7}]}
